The record followed here is ChEMBL document CHEMBL1201862, “PubChem BioAssay data set” (2004).

Some test systems named below: UO-31; CAKI-1; HCT-116; MDA-MB-435; NCI/ADR-RES; EKVX; ACHN; SK-MEL-5; CCRF-CEM; NCI-H522; HOP-92; DU-145; NCI-H460; HCC 2998; SK-MEL-2; U-251; NCI-H226; RXF 393; OVCAR-5.
Assay in all cases: NCI tumour cell line growth inhibition, 48 h

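Interpolation was linear, between the two tested concentrations surrounding the appropriate level; five concentrations were tested over 48 hours in 96-well plates. Abbreviation: GI50, concentration required for 50% inhibition of growth.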 The source made the active and inactive calls. Cut-off read from the data, not from the text of the source: active = GI50 up to about 1.1 µM and inactive = higher.

For `CN(C)Cc1cc(/N=N/c2c(Cl)cccc2Cl)ccc1O`, the GI50 in the test with UO-31 is 36 µM (inactive); in the test with CAKI-1 it was > 100 µM (inactive); with HCT-116 it was > 100 µM (inactive); in the test on MDA-MB-435, 88.9 µM (inactive); in the test with NCI/ADR-RES it was > 100 µM (inactive); in the test on EKVX, > 100 µM (inactive). Besides, the GI50 was 56.4 µM (inactive) with ACHN; 17.5 µM (inactive) in the test with SK-MEL-5; > 100 µM (inactive) with CCRF-CEM; > 100 µM (inactive) in the test with NCI-H522; 31.9 µM (inactive) in the test on HOP-92; 8.49 µM (inactive) in the test on DU-145. The GI50 was 75 µM (inactive) with NCI-H460; > 100 µM (inactive) in the test on HCC 2998; > 100 µM (inactive) with SK-MEL-2; 85.7 µM (inactive) in the test with U-251; 35.2 µM (inactive) in the test on NCI-H226; 23.4 µM (inactive) in the test on RXF 393.

Consider `CN(C)CCCN1c2ccc([N+](=O)[O-])cc2CCc2cc([N+](=O)[O-])ccc21`, for which the GI50 in the test with UO-31 is 12 µM (inactive); in the test on CAKI-1, 14.5 µM (inactive); in the test with HCT-116, 13.7 µM (inactive); in the test with MDA-MB-435, 14.5 µM (inactive); in the test on NCI/ADR-RES, 16.4 µM (inactive); with EKVX it was 15.2 µM (inactive). Moreover, the GI50 in the test with ACHN was 15.6 µM (inactive); with SK-MEL-5 it was 10.6 µM (inactive); in the test on CCRF-CEM it was 11.4 µM (inactive); in the test with NCI-H522 it was 17.4 µM (inactive); with HOP-92, 5.41 µM (inactive); in the test with DU-145, 17.4 µM (inactive). The GI50 was 12.6 µM (inactive) in the test with NCI-H460; 11.9 µM (inactive) in the test on HCC 2998; 17.5 µM (inactive) with SK-MEL-2; 13.7 µM (inactive) in the test with U-251; 13.9 µM (inactive) in the test with OVCAR-5; 15.7 µM (inactive) with NCI-H226. Moreover, in the test with RXF 393, the GI50 is 11.7 µM (inactive).

As for `CCOC(=O)C1c2[nH]c3ccccc3c2CCN1C(=O)c1ccc(OC)o1` (stereo not given), the GI50 with UO-31, with CAKI-1, with MDA-MB-435, with NCI/ADR-RES, with EKVX and with ACHN was > 10 µM (inactive) each time. Besides, the GI50 with SK-MEL-5, in the test on CCRF-CEM, in the test on NCI-H522, in the test on HOP-92, with DU-145 and with NCI-H460 was > 10 µM (inactive) throughout. The GI50 in the test with HCC 2998, in the test on SK-MEL-2, with U-251, with OVCAR-5, in the test with NCI-H226 and in the test with RXF 393 was > 10 µM (inactive) throughout.

`Cc1ccc(F)cc1NC(=O)O/N=C(\Cl)C(C)C`: the GI50 in the test on UO-31 was 7.98 µM (inactive); in the test with CAKI-1 it was 1.72 µM (inactive); with HCT-116, 5.28 µM (inactive); in the test with MDA-MB-435, 13 µM (inactive); in the test on NCI/ADR-RES it was 10.6 µM (inactive); with EKVX, 7.19 µM (inactive). The GI50 in the test with ACHN is 2.14 µM (inactive); with SK-MEL-5, 6.97 µM (inactive); with CCRF-CEM, 1.9 µM (inactive); with NCI-H522 it was 0.791 µM (active); with HOP-92, 2.58 µM (inactive); in the test on DU-145 it was 18.2 µM (inactive). The GI50 in the test with NCI-H460 is 29.2 µM (inactive); in the test on HCC 2998, 16.2 µM (inactive); with SK-MEL-2, 19.1 µM (inactive); with U-251, 23.3 µM (inactive); in the test on OVCAR-5, 15.4 µM (inactive); with NCI-H226, 14 µM (inactive). Further, in the test on RXF 393, the GI50 is 3.05 µM (inactive).

`O=C(C[n+]1ccccc1)N/N=C(\C(=O)NC1=C(Cl)C(=O)c2ccccc2C1=O)c1c(O)c2ccc(O)cc2oc1=O`: the GI50 in the test with UO-31 was 12.2 µM (inactive); with CAKI-1 it was 6.64 µM (inactive); with HCT-116, 2.99 µM (inactive); in the test with MDA-MB-435, 2.01 µM (inactive); in the test with NCI/ADR-RES, 4.08 µM (inactive); in the test with EKVX it was 12.9 µM (inactive). The GI50 in the test on ACHN is 5.11 µM (inactive); with SK-MEL-5 it was 1.06 µM (active); with CCRF-CEM, 4.94 µM (inactive); with NCI-H522, 2.07 µM (inactive); in the test on HOP-92, 14.8 µM (inactive); with DU-145, 3.59 µM (inactive). Also, the GI50 was 2.52 µM (inactive) in the test on NCI-H460; 3.4 µM (inactive) in the test with HCC 2998; 2.31 µM (inactive) in the test on SK-MEL-2; 5.07 µM (inactive) in the test with U-251; 12.3 µM (inactive) in the test on OVCAR-5; 5.56 µM (inactive) with NCI-H226. Moreover, the GI50 with RXF 393 is 9.35 µM (inactive).

Consider `C#CCn1c(I)cc2c(c1=O)COC(=O)[C@]2(O)CC`, for which the GI50 in the test with UO-31, in the test with CAKI-1, with HCT-116, in the test on MDA-MB-435, with NCI/ADR-RES and in the test on EKVX was > 100 µM (inactive) throughout. The GI50 in the test with ACHN, with SK-MEL-5, in the test on CCRF-CEM, in the test with NCI-H522, with HOP-92 and in the test with DU-145 was > 100 µM (inactive) throughout. The GI50 in the test on NCI-H460, with HCC 2998, in the test with SK-MEL-2, in the test on U-251, in the test on OVCAR-5 and in the test on NCI-H226 was > 100 µM (inactive) each time. Moreover, in the test on RXF 393, the GI50 was > 100 µM (inactive).

`Clc1ccc(OCC2NC3CCC2CC3)cn1` (stereo not given): the GI50 is 2.45 µM (inactive) in the test with UO-31; 42.5 µM (inactive) in the test on CAKI-1; 20.7 µM (inactive) in the test on HCT-116; 20.4 µM (inactive) in the test on MDA-MB-435; 50.1 µM (inactive) in the test with NCI/ADR-RES; 26.3 µM (inactive) in the test on EKVX. The GI50 is 33.3 µM (inactive) in the test with ACHN; 17.6 µM (inactive) in the test on SK-MEL-5; 25 µM (inactive) in the test with CCRF-CEM; 19 µM (inactive) with NCI-H522; 35.4 µM (inactive) with HOP-92; 59.3 µM (inactive) in the test on DU-145. The GI50 is 21.3 µM (inactive) in the test with NCI-H460; 16.6 µM (inactive) with HCC 2998; 18 µM (inactive) with SK-MEL-2; 16.3 µM (inactive) in the test on U-251; 52 µM (inactive) with OVCAR-5; > 100 µM (inactive) with NCI-H226. In addition, in the test with RXF 393, the GI50 was 36.9 µM (inactive).

For `CC(C(O)c1ccccc1)C(O)(C(F)(F)F)C(F)(F)F` (stereo not given), the GI50 in the test with UO-31, in the test on CAKI-1, in the test with HCT-116, with MDA-MB-435, in the test on NCI/ADR-RES and in the test with EKVX was > 100 µM (inactive) in each case. Besides, the GI50 is > 100 µM (inactive) in the test on ACHN; 49.7 µM (inactive) with SK-MEL-5; > 100 µM (inactive) in the test with CCRF-CEM; > 100 µM (inactive) in the test on NCI-H522; 50.8 µM (inactive) with HOP-92; > 100 µM (inactive) in the test with DU-145. Moreover, the GI50 with NCI-H460 is > 100 µM (inactive); with HCC 2998, > 100 µM (inactive); in the test on SK-MEL-2 it was > 100 µM (inactive); in the test with U-251 it was > 100 µM (inactive); with OVCAR-5, > 100 µM (inactive); with NCI-H226 it was 69.7 µM (inactive). For the same compound, the GI50 in the test on RXF 393 is > 100 µM (inactive).

Regarding `O=C(/C=C1\C[C@H]2C=Nc3ccccc3C(=O)N2C1)NCCCCCNC(=O)/C=C1\C[C@H]2C=Nc3ccccc3C(=O)N2C1`, the GI50 in the test with UO-31 was 1.94 µM (inactive); with CAKI-1 it was 2.6 µM (inactive); in the test on HCT-116 it was 6.14 µM (inactive); in the test on MDA-MB-435 it was 4.7 µM (inactive); with NCI/ADR-RES it was 24.3 µM (inactive); with EKVX, 18 µM (inactive). Further, the GI50 in the test on ACHN is 1.98 µM (inactive); with SK-MEL-5, 22.2 µM (inactive); with CCRF-CEM, 1.05 µM (active); in the test with NCI-H522, 0.726 µM (active); with HOP-92, 4.63 µM (inactive); in the test on DU-145 it was 13.5 µM (inactive). Also, the GI50 in the test with NCI-H460 is 18.3 µM (inactive); in the test with HCC 2998, 18.5 µM (inactive); in the test with SK-MEL-2 it was 15.1 µM (inactive); in the test with U-251 it was 3.03 µM (inactive); in the test on OVCAR-5, 18.8 µM (inactive); with NCI-H226, > 51.5 µM (inactive). In addition, in the test on RXF 393, the GI50 is 3.56 µM (inactive).

For the compound `Cc1ccc(C2=Nc3cccc4cccc(c34)N2)cc1`, the GI50 in the test on UO-31, in the test on CAKI-1, with HCT-116, in the test on MDA-MB-435, in the test with NCI/ADR-RES and in the test on EKVX was > 100 µM (inactive) throughout. Moreover, the GI50 in the test on ACHN, with SK-MEL-5, in the test with CCRF-CEM, with NCI-H522, in the test on HOP-92 and with DU-145 was > 100 µM (inactive) each time. Also, the GI50 with NCI-H460, in the test on HCC 2998, in the test on SK-MEL-2, in the test with U-251, in the test on NCI-H226 and with RXF 393 was > 100 µM (inactive) in each case.

`COc1ccc(C(C#N)NCCCCCCNC(C#N)c2ccc(OC)cc2)cc1` (stereo not given): the GI50 in the test with UO-31, with CAKI-1, in the test with HCT-116, in the test with MDA-MB-435, in the test with NCI/ADR-RES and with EKVX was > 100 µM (inactive) throughout. The GI50 in the test with ACHN, in the test on SK-MEL-5, in the test with CCRF-CEM, in the test on NCI-H522, in the test with HOP-92 and in the test on DU-145 was > 100 µM (inactive) throughout. Moreover, the GI50 with HCC 2998, in the test on SK-MEL-2, in the test with U-251, with OVCAR-5, in the test with NCI-H226 and in the test on RXF 393 was > 100 µM (inactive) each time.
